Assay results: patent US12054498B2, “Heteroaromatic macrocyclic ether chemotherapeutic agents” (Nuvalent, Inc., priority 2020, dated 2024)

Columns and labels:
[1] = target: T1, ROS1-G2032R (Homo sapiens, UniProt P08922, G2032R); experiment: Biochemical kinase assay, ROS1-G2032R kinase domain; conditions: apparent inhibitory constant, Morrison equation; ATP 2 mM in substrate solution; read-out: ROS1-G2032R Ki^app
T1 construct: purchased SignalChem R14-12BG
Summary of the method: (§1)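 Compounds, as 100-fold DMSO stocks, were dispensed first, then substrate mix was added (ATP 2 mM, AQT0101 26 μM, in 50 mM HEPES pH 7.5/10 mM MgCl2). Reactions ran at 30 °C with fluorescence logged every 2 min over 120 min. Apparent inhibition constants came from fitting rates to Morrison's tight-binding equation.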

[2] = target: T2, Ba/F3 cells EML4-ALK L1196M/G1202R (variant 1) (Homo sapiens, UniProt Q9UM73, G1202R/L1196M); experiment: Ba/F3 cell proliferation assay, EML4-ALK L1196M/G1202R (variant 1); type: cell-based; conditions: 72 hours, CellTiter-Glo
T2 construct: echinoderm microtubule-associated protein-like 4 (EML4) gene and the ALK tyrosine kinase domain; host or cells: Ba/F3 (RIKEN), retroviral pMSCV-puro; the other entry of the earlier key: EML4 (Q9HC35, Echinoderm microtubule-associated protein-like 4)
T2 sequence (Q9UM73 with tags, fused parts or gaps L1196M/G1202R): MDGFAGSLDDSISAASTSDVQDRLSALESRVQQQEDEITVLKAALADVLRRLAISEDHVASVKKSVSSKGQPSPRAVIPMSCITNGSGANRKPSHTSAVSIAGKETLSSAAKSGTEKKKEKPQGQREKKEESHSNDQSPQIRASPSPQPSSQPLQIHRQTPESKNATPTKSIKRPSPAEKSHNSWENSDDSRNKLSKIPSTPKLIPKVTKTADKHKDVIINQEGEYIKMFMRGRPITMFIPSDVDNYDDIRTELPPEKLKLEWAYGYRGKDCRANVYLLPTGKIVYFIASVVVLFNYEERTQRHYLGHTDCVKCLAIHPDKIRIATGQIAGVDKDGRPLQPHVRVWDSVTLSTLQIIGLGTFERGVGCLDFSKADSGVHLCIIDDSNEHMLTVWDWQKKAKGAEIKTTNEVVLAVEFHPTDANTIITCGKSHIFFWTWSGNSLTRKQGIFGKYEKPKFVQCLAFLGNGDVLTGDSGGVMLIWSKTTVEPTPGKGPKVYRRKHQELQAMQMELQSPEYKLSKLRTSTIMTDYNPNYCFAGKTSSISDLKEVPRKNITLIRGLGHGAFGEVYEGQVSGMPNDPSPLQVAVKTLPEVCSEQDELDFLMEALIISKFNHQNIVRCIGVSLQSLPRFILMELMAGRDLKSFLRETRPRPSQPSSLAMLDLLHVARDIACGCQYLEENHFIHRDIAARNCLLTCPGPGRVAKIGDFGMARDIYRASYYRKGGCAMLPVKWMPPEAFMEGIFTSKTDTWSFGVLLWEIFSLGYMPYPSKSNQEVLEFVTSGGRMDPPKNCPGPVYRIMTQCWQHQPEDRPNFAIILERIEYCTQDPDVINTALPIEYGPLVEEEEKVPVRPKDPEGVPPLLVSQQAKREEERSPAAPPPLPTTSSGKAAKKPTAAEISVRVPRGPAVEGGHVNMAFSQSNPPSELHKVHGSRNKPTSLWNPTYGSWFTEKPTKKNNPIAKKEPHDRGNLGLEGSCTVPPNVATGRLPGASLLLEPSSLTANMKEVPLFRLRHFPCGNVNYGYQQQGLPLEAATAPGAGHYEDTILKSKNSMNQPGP
Summary of the method: (§2)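 Luminescence from CellTiter-Glo after 72 hours of compound exposure measured viability of IL-3-independent Ba/F3 cells carrying the retrovirally introduced fusion. Cells were plated at 1,000 per well one day before 3-fold serial dilutions were added. IC50 values came from four-parameter logistic regression.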

[3] = target: T3, TRKA-wt (Homo sapiens, UniProt P04629); experiment: Biochemical kinase assay, TRKA-wt kinase domain; conditions: apparent inhibitory constant, Morrison equation; ATP 2 mM in substrate solution; read-out: TRKA-wt Ki^app
T3 construct: or TRKA-wt (1 nM, BPS Bio, 40280) kinase domains in buffer; purchased BPS Bio 40280
T3 sequence (P04629 510-781 limits assumed): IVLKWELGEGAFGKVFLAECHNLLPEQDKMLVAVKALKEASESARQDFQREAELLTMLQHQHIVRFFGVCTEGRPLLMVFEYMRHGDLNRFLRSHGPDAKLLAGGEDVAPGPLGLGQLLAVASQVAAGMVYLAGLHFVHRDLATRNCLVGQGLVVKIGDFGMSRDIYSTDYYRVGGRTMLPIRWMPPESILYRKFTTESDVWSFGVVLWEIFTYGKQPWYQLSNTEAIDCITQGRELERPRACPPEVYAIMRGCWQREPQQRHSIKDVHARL
Summary of the method: (§3)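 Kinase domains (in kinase solution: ROS1-G2032R 0.5 nM, ROS1-wt 0.6 nM, TRKA 1 nM, ALK L1196M/G1202R 3 nM) were mixed with compound and a substrate solution of 2 mM ATP plus 26 μM fluorogenic AQT0101 (ALK, ROS1) or AQT0104 (TRKA) in HEPES pH 7.5/MgCl2. Fluorescence was followed for 120 min at 30° C; Ki^app was obtained by Morrison fit of initial rates.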

[4] = target: T4, Ba/F3 cells CD74-ROS1 G2032R (Homo sapiens, UniProt P08922, G2032R); experiment: Ba/F3 cell proliferation assay, CD74-ROS1 G2032R; type: cell-based; conditions: 72 hours, CellTiter-Glo
T4 construct: fusion of the C-terminus of ROS1 with the N-terminus of various partner proteins; host or cells: Ba/F3 (RIKEN), retroviral pMSCV-puro; the other entry of the earlier key: CD74 (P04233, HLA class II histocompatibility antigen gamma chain)
T4 sequence (P08922 1883-2347 G2032R limits assumed): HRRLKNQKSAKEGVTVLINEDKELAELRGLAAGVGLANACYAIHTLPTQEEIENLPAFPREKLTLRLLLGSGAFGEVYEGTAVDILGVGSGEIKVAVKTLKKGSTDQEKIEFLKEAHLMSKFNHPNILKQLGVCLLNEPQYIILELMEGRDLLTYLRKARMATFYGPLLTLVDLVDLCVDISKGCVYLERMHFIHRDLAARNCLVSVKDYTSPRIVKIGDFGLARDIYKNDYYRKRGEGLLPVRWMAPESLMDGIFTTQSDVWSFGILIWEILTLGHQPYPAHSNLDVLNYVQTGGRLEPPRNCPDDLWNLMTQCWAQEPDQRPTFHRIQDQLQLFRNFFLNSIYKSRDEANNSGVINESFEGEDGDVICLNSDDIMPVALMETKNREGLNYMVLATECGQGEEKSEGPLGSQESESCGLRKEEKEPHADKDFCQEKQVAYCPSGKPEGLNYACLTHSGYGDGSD
Summary of the method: (§4)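 Cells were seeded 1 day, then exposed to a 3-fold compound dilution series for 72 hours. Viability was read by CellTiter-Glo luminescence; IC50 came from four-parameter logistic fitting of percent inhibition.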

[5] = target: T5, Ba/F3 cells EML4-ALK wt (variant 1) (Homo sapiens, UniProt Q9UM73); experiment: Ba/F3 cell proliferation assay, EML4-ALK wt (variant 1); type: cell-based; conditions: 72 hours, CellTiter-Glo
T5 construct: echinoderm microtubule-associated protein-like 4 (EML4) gene and the ALK tyrosine kinase domain; host or cells: Ba/F3 (RIKEN), retroviral pMSCV-puro; the other entry of the earlier key: EML4 (Q9HC35, Echinoderm microtubule-associated protein-like 4)
T5 sequence (Q9UM73 with tags, fused parts or gaps): as the sequence (Q9UM73 with tags, fused parts or gaps L1196M/G1202R) above, with M635L, R641G counted along it
Summary of the method: as §2

[6] = tested on: TPM3-NTRK1-wt IC50 / primary target IC50 (e.g. CD74-ROS1-wt); experiment: TRKA selectivity in Ba/F3 cells (TRKA potency divided by primary target potency); type: cell-based; conditions: for TPM3-NTRK1-wt/CD74-ROS1-G2032R selectivity ratio: TRKA potency / CD74-ROS1-G2032R potency; for TPM3-NTRK1-wt/CD74-ROS1-wt selectivity ratio: TRKA potency / CD74-ROS1-wt potency; for TPM3-NTRK1-wt/EML4-ALK-L1196M-G1202R selectivity ratio: TRKA potency / EML4-ALK-L1196M-G1202R potency; for TPM3-NTRK1-wt/EML4-ALK-wt selectivity ratio: TRKA potency / EML4-ALK-wt potency
Experimental: TRKA selectivity was calculated by dividing a compound's TRKA potency by its primary target potency (e.g. TPM3-NTRK1-wt IC50/CD74-ROS1-wt IC50). Compound selectivity can be interpreted by binning ratio values: bin A for very high selectivity, ratio >30-fold; bin B for high selectivity, ratio >10-fold; bin C for moderate selectivity, ratio ≥1; and bin D for low selectivity, ratio <1. […] (nd=not determined).

[7] = target: T6, ALK L1196M/G1202R (Homo sapiens, UniProt Q9UM73, G1202R/L1196M); experiment: Biochemical kinase assay, ALK L1196M/G1202R kinase domain; conditions: apparent inhibitory constant, Morrison equation; ATP 2 mM in substrate solution; read-out: ALK-L1196M-G1202R Ki^app
T6 construct: purchased SignalChem A19-12NG
T6 sequence (Q9UM73 1116-1392 L1196M/G1202R limits assumed): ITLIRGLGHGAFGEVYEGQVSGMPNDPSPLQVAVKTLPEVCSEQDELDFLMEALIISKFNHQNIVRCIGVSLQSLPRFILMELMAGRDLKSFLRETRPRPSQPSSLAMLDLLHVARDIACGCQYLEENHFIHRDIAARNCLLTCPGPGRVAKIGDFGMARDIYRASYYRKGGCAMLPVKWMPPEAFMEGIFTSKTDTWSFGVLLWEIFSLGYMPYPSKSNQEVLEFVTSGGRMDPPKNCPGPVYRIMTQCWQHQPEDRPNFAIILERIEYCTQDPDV
Summary of the method: as §3

[8] = target: T7, Ba/F3 cells TPM3-TRKA (Homo sapiens, UniProt P04629); experiment: Ba/F3 cell proliferation assay, TPM3-TRKA; type: cell-based; conditions: 72 hours, CellTiter-Glo, read-out: TPM3-NTRK1-wt IC50
T7 construct: host or cells: Ba/F3 (RIKEN), retroviral pMSCV-puro; the other entry of the earlier key: TPM3 (P06753, Tropomyosin alpha-3 chain)
T7 sequence (P04629 510-796 limits assumed): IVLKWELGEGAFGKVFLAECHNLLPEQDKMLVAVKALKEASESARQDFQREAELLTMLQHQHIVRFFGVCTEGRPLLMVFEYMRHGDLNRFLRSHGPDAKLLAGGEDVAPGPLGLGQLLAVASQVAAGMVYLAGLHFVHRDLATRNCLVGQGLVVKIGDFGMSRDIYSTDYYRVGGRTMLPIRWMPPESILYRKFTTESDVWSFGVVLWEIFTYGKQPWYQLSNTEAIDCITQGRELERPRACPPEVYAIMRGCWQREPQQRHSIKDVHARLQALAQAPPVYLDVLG
Summary of the method: as §2

[9] = target: T8, ROS1-wt (Homo sapiens, UniProt P08922); experiment: Biochemical kinase assay, ROS1-wt kinase domain; conditions: apparent inhibitory constant, Morrison equation; ATP 2 mM in substrate solution; read-out: ROS1-wt Ki^app
T8 construct: purchased Carna 08-163
T8 sequence (P08922 1945-2222 limits assumed): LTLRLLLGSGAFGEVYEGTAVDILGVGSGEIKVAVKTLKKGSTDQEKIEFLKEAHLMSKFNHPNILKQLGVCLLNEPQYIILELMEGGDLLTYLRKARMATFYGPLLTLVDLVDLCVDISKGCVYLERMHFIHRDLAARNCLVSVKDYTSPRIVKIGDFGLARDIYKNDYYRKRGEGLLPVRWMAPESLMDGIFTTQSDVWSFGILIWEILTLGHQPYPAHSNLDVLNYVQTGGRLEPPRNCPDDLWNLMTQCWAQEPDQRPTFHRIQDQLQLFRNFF
Summary of the method: as §1

[10] = target: T9, ALK-wt (Homo sapiens, UniProt Q9UM73); experiment: Biochemical kinase assay, ALK-wt kinase domain; conditions: apparent inhibitory constant, Morrison equation; ATP 2 mM in substrate solution; read-out: ALK-wt Ki^app
T9 construct: purchased Carna 08-518
T9 sequence (Q9UM73 1116-1392 limits assumed): as the sequence (Q9UM73 1116-1392 L1196M/G1202R limits assumed) above, with M81L, R87G counted along it
Summary of the method: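 Apparent Ki values come from fitting initial reaction rates against inhibitor concentration to the Morrison equation. Rates were taken from the linear phase of fluorogenic substrate phosphorylation (AQT0101 for ALK and ROS1, AQT0104 for TRKA; 26 μM in substrate solution with 2 mM ATP), monitored at 485 nm over 120 min at 30° C.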

[11] = target: T10, Ba/F3 cells CD74-ROS1 wild-type (wt) (Homo sapiens, UniProt P08922); experiment: Ba/F3 cell proliferation assay, CD74-ROS1 wild-type; type: cell-based; conditions: 72 hours, CellTiter-Glo
T10 construct: fusion of the C-terminus of ROS1 with the N-terminus of various partner proteins; host or cells: Ba/F3 (RIKEN), retroviral pMSCV-puro; the other entry of the earlier key: CD74 (P04233, HLA class II histocompatibility antigen gamma chain)
T10 sequence (P08922 1883-2347 limits assumed): as the sequence (P08922 1883-2347 G2032R limits assumed) above, with R150G counted along it
Summary of the method: as §4

T1 sequence (P08922 1945-2222 G2032R limits assumed): as the sequence (P08922 1945-2222 limits assumed) above, with G88R counted along it

Row | SMILES | Ki [1] | IC50 [2] | Ki [3] | IC50 [4] | IC50 [5] | TPM3-NTRK1-wt/CD74-ROS1-G2032R selectivity ratio [6] | TPM3-NTRK1-wt/CD74-ROS1-wt selectivity ratio [6] | TPM3-NTRK1-wt/EML4-ALK-L1196M-G1202R selectivity ratio [6] | TPM3-NTRK1-wt/EML4-ALK-wt selectivity ratio [6] | Ki [7] | IC50 [8] | Ki [9] | Ki [10] | IC50 [11]
1 | CCn1ncc2c1-c1cnc(N)c(c1)O[C@H](C)c1cc(F)ccc1-n1ccnc1C2 [Example 42, (19R)-3-ethyl-16-fluoro-19-methyl-20-oxa-3,4,9,12,23-pentaazapentacyclo[19.3.1.0^2,^6.0^8,^12.0^13,^18]pentacosa-1(24),2(6),4,8,10,13,15,17,21(25),22-decaen-22-amine] | < 50 nM | 50 to 500 nM | 50 to 500 nM | 0.1 to 50 nM | 0.1 to 50 nM | A (bin A for very high selectivity, ratio >30-fold) | A (bin A for very high selectivity, ratio >30-fold) | C (bin C for moderate selectivity, ratio ≥1) | B (bin B for high selectivity, ratio >10-fold) | < 50 nM | 50 to 500 nM | < 50 nM | < 50 nM | 0.1 to 50 nM
2 | C[C@H]1Oc2cc(cnc2N)-c2c(C#N)cnn2Cc2ncsc2-c2ccc(F)cc21 [Example 49, (19R)-22-amino-16-fluoro-19-methyl-20oxa-11-thia-5,6,9,23-tetraazapentacyclo[19.3.1.0^2,^6.0^8,^12.0^13,^18]pentacosa-1(24),2,4,8(12),9,13,15,17,21(25),22-decaene-3-carbonitrile] | 50 to 500 nM | > 500 nM | > 500 nM | 50 to 500 nM | 0.1 to 50 nM | B (bin B for high selectivity, ratio >10-fold) | A (bin A for very high selectivity, ratio >30-fold) | C (bin C for moderate selectivity, ratio ≥1) | A (bin A for very high selectivity, ratio >30-fold) | 50 to 500 nM | > 500 nM | < 50 nM | < 50 nM | 0.1 to 50 nM
3 | Cc1nn(CC2CC2)c2c1Cc1nn(C)nc1-c1c(F)cc(F)cc1[C@@H](C)Oc1cc-2cnc1N [Example 82, (19R)-3-(cyclopropylmethyl)-14,16-difluoro-5,10,19-trimethyl-20-oxa3,4,9,10,11,23-hexaazapentacyclo[19.3.1.0^2,^6.0^8,^12.0^13,^18]pentacosa 1(24),2(6),4,8,11,13,15,17,21(25),22-decaen-22-amine] | < 50 nM | 50 to 500 nM | > 500 nM | 0.1 to 50 nM | 0.1 to 50 nM | A (bin A for very high selectivity, ratio >30-fold) | A (bin A for very high selectivity, ratio >30-fold) | A (bin A for very high selectivity, ratio >30-fold) | A (bin A for very high selectivity, ratio >30-fold) | < 50 nM | > 500 nM | < 50 nM | < 50 nM | 0.1 to 50 nM
